Values after ≈ are worked out from the molar mass of the structure shown.
Key:
male Swiss-Webster mice = assay: in vivo; conditions: for Acute toxicity for mice / Mortality at doses up to 2 g/kg: in words; for Mortality at doses up to 2 g/kg: up to 2 g/kg body weight
Description: (§1) Compounds were suspended in a minimum volume of 1% sodium carboxymethylcellulose, and were administered by oral intubation at the doses indicated in Table II.
(§2) ^a Male SwissWebster mice (9 or 10 animals per dose).
(§3) ^d Mortality = number of mice dying within 14 days/number of starting
(§4) ^e Mortality = number of mice dying within 24 hours/number of startin

[1] = test system: Salmonella typhimurium strain TM677; assay: Forward mutation assay; type: cell-based
[2] = Thermostability of neat hernandulcin at 100° C. by TLC; type: physicochemical
[3] = Stability in citrate-phosphate-borate buffer solutions by TLC; type: physicochemical
Description: The first of these manipulations was conducted by storage of this compound in citrate-phosphate-borate buffer solutions, at the pH levels 2, 3, 4, 6, 7, 8, 10, and 12. […] Solutions were exposed to the atmosphere after their constitution.
Compound decomposition was assessed by counting the number of zones apparent by TLC analysis 1 hour, 3 hours, 6 hours, 24 hours, 1 week and 2 weeks after solution composition.

Water solubility = type: physicochemical
[4] = Body weight variation in mice following oral administration; conditions: for Day 14 total body weight vs control values: Day 14, in words
Description: as §1

human taste panel = assay: Human taste panel magnitude estimation of sweetness intensity and pleasantness; conditions: for Sweetness intensity at matched concentration: sucrose 0.27 M
Source text: Solutions were presented to the subjects in a randomized fashion and were sampled in duplicate. After tasting, each solution was expectorated, and the mouth was washed with distilled water.

S. mutans [5] = assay: Cariogenicity: inhibition of acid production from sucrose by S. mutans; type: cell-based; conditions: 428 micrograms per unit volume sucrose, 5,000 micrograms per unit volume sweetener
Description: In a second test, the ability of the test compound to inhibit acid production from sucrose by S. mutans was determined.

S. mutans [6] = assay: Cariogenicity: acid production by S. mutans from sweetener; type: cell-based
Description: In a first test, the ability of microbes to utilize this sweetener source as a nutrient and convert it to acidic by-products was determined.

in vivo = conditions: mouse, in vivo, po
Description: as §1, §2, §3, §4

[7] = synthetic hernandulcin, 100° C., 24 hours, TLC zone areas
[8] = synthetic hernandulcin, 60° C., 1 week and 2 weeks
[9] = natural hernandulcin 2.5 × 10^-4 M
[10] = scale 0-100, natural hernandulcin 2.5 × 10^-4 M

CC(C)=CCC[C@@](C)(O)[C@H]1CCC(C)=CC1=O (relative stereo) [Hernandulcin, 6-(1',5'-dimethyl-1'-hydroxyhex-4'-en-1'-yl)-3-methyl-2-cyclohexen-1-one]
Acute toxicity for mice (male Swiss-Webster mice; oral): non-toxic
Mortality at doses up to 2 g/kg (male Swiss-Webster mice; oral): no mortality
Mutagenicity ([1]; summary in words): non-mutagenic
remaining at 24 h ([2]; neat compound, read-out: Compound remaining unchanged): ~60%
Conversion to 3-methyl-2-cyclohexen-1-one [2, 7]: ~10%
Conversion to 6-methyl-5-hepten-2-one [2, 7]: ~10%
Detectability of hernandulcin after storage [3, 8]: detectable at all pH's
pH dependence of decomposition [3, 8]: greater degrees of decomposition being observed at the acid and alkaline pH extremes
Breakdown in buffer at 60° C., 1 week and 2 weeks ([3]; synthetic hernandulcin, about 0.1 wt. %, pH 2-12, 60° C.): substantial breakdown was apparent in all solutions
Decomposition in buffer at 60° C., up to 24 hours ([3]; synthetic hernandulcin, about 0.1 wt. %, pH 2-12, 60° C., up to 24 hours): no decomposition was observed
Breakdown in buffer at room temperature ([3]; synthetic hernandulcin, about 0.1 wt. %, pH 2-12, room temperature, up to two weeks): no compound breakdown was evident
Stability to hydrolysis ([3]; wide pH range, up to about 60° C.): relatively stable to hydrolysis over a wide pH range
solubility (Water solubility): ~500 µg/mL (≈ 2120 µM)
Body weight, Day 1 (1.0 g/kg) ([4]; mouse, in vivo, po): 27.1 ± 0.8 g
Body weight, Day 1 (2.0 g/kg) ([4]; mouse, in vivo, po): 25.6 ± 0.9 g
Body weight, Day 3 (1.0 g/kg) ([4]; mouse, in vivo, po): 26.7 ± 0.8 g
Body weight, Day 3 (2.0 g/kg) ([4]; mouse, in vivo, po): 26.3 ± 0.9 g
Body weight, Day 7 (1.0 g/kg) ([4]; mouse, in vivo, po): 27.9 ± 0.8 g
Body weight, Day 7 (2.0 g/kg) ([4]; mouse, in vivo, po): 26.0 ± 0.9 g
Body weight, Day 14 (1.0 g/kg) ([4]; mouse, in vivo, po): 28.1 ± 0.8 g
Body weight, Day 14 (2.0 g/kg) ([4]; mouse, in vivo, po): 27.6 ± 0.9 g
Body weight, pre-drug (1.0 g/kg group) ([4]; mouse, in vivo, po): 29.3 ± 0.8 g
Body weight, pre-drug (2.0 g/kg group) ([4]; mouse, in vivo, po): 26.0 ± 0.9 g
EC (sweetness equal to 0.27 M sucrose) (human taste panel; Homo sapiens, natural hernandulcin, distilled water, 17 participants, read-out: Concentration matching the sweetness of 0.27 M sucrose): 250 µM
Bitterness judged by the panel (human taste panel; in words, natural hernandulcin): moderate bitterness
Off- and after-tastes judged by the panel (human taste panel; in words, natural hernandulcin): significant off- and after-tastes
Pleasantness judged by the panel (human taste panel; in words, natural hernandulcin): less pleasant than sucrose
After-taste intensity (human taste panel; [9]): 30
After-taste pleasantness (human taste panel; [9]): 0
Bitterness (human taste panel; [9]): 15
Off-taste intensity (human taste panel; [9]): 33
Off-taste pleasantness (human taste panel; [9]): -5
Concentration matching the sweetness of 0.27 M sucrose (human taste panel; natural hernandulcin, distilled water, 17 participants): ~250 µM
Sweetness intensity, hernandulcin 1.06 × 10^-5 M (human taste panel; natural, 1.06 × 10^-5 M, scale 0-100, mean (standard error)): 9.7 (4.19)
Sweetness pleasantness, hernandulcin 1.06 × 10^-5 M (human taste panel; natural, 1.06 × 10^-5 M, scale -100 to +100, mean (standard error)): 1.2 (5.58)
Sweetness intensity, hernandulcin 2.11 × 10^-5 M (human taste panel; natural, 2.11 × 10^-5 M, scale 0-100, mean (standard error)): 8.8 (2.37)
Sweetness pleasantness, hernandulcin 2.11 × 10^-5 M (human taste panel; natural, 2.11 × 10^-5 M, scale -100 to +100, mean (standard error)): 2.6 (6.00)
Sweetness intensity, hernandulcin 4.24 × 10^-5 M (human taste panel; natural, 4.24 × 10^-5 M, scale 0-100, mean (standard error)): 8.8 (3.18)
Sweetness pleasantness, hernandulcin 4.24 × 10^-5 M (human taste panel; natural, 4.24 × 10^-5 M, scale -100 to +100, mean (standard error)): 1.2 (4.18)
Sweetness intensity, hernandulcin 8.47 × 10^-5 M (human taste panel; natural, 8.47 × 10^-5 M, scale 0-100, mean (standard error)): 15.8 (4.10)
Sweetness pleasantness, hernandulcin 8.47 × 10^-5 M (human taste panel; natural, 8.47 × 10^-5 M, scale -100 to +100, mean (standard error)): 4.9 (7.67)
Sweetness intensity, hernandulcin 16.9 × 10^-5 M (human taste panel; natural, 16.9 × 10^-5 M, scale 0-100, mean (standard error)): 39.7 (3.52)
Sweetness pleasantness, hernandulcin 16.9 × 10^-5 M (human taste panel; natural, 16.9 × 10^-5 M, scale -100 to +100, mean (standard error)): 24.8 (7.99)
Sweetness intensity, hernandulcin 33.9 × 10^-5 M (human taste panel; natural, 33.9 × 10^-5 M, scale 0-100, mean (standard error)): 44.4 (5.45)
Sweetness pleasantness, hernandulcin 33.9 × 10^-5 M (human taste panel; natural, 33.9 × 10^-5 M, scale -100 to +100, mean (standard error)): 8.2 (10.70)
Sweetness intensity, hernandulcin 67.8 × 10^-5 M (human taste panel; natural, 67.8 × 10^-5 M, scale 0-100, mean (standard error)): 62.7 (5.59)
Sweetness pleasantness, hernandulcin 67.8 × 10^-5 M (human taste panel; natural, 67.8 × 10^-5 M, scale -100 to +100, mean (standard error)): -16.2 (9.78)
Sweetness intensity at matched concentration (human taste panel; [10]): 40
Sweetness pleasantness at matched concentration (human taste panel; scale -100 to +100, natural hernandulcin 2.5 × 10^-4 M): 15

CC(C)=CCC[C@@](C)(O)[C@H]1CCC(C)=CC1=O (relative stereo) [synthetic hernandulcin, 6-(1',5'-dimethyl-1'-hydroxyhex-4'-en-1'-yl)-3-methyl-2-cyclohexen-1-one]
Acute toxicity for mice (male Swiss-Webster mice; oral): non-toxic
Mutagenic activity without metabolic activation ([1]; synthetic hernandulcin, in absence of activating system): No significant mutagenic activity
Mutagenic activity with metabolic activation ([1]; synthetic hernandulcin, in presence of activating system from livers of Aroclor 1254-pretreated rats): No significant mutagenic activity
Inhibition of acid production from sucrose (S. mutans [5]): failed to reduce the rate of acid production
Rate of acid production at 5,000 micrograms per unit volume (S. mutans [6]; 5,000 micrograms per unit volume sweetener): 2.6×10^-5 mEq acid/min.
Rate of acid production compared to sucrose (S. mutans [6]; in words, 5,000 micrograms per unit volume): relatively low rate of acid production
Taste (human taste panel; in words, synthetic racemic hernandulcin): sweet

CC1=CC(=O)CCC1 [3-Methyl-2-cyclohexen-1-one, 3-methyl-2-cyclohexen-1-one]
LD50 at 24 h (in vivo): < 2000 mg/kg
Estimated LD50 (male Swiss-Webster mice; mouse, in vivo, po): 1600 ± 130 mg/kg
Mortality at 1.1 g/kg (male Swiss-Webster mice; oral, 1.1 g/kg): 0/10
Mortality at 1.3 g/kg (male Swiss-Webster mice; oral, 1.3 g/kg): 2/10
Mortality at 1.4 g/kg (male Swiss-Webster mice; oral, 1.4 g/kg): 4/10
Mortality at 1.6 g/kg (male Swiss-Webster mice; oral, 1.6 g/kg): 5/10
Mortality at 2.0 g/kg (24 hours) (male Swiss-Webster mice; oral, 2.0 g/kg, 24 hours): 8/10
Mortality at 2.4 g/kg (male Swiss-Webster mice; oral, 2.4 g/kg): 10/10
Acute toxicity for mice (male Swiss-Webster mice; oral): essentially non-toxic

CC(=O)CCC=C(C)C [6-Methyl-5-hepten-2-one, 6-methyl-5-hepten-2-one]
Mortality at 1.0 g/kg (male Swiss-Webster mice; oral, 1.0 g/kg, 14 days, hernandulcin = synthetic): 0/9
Mortality at 2.0 g/kg (14 days) (male Swiss-Webster mice; oral, 2.0 g/kg, 14 days, hernandulcin = synthetic): 0/9
Acute toxicity for mice (male Swiss-Webster mice; oral): essentially non-toxic
Estimated LD50 (male Swiss-Webster mice; oral, male mice, hernandulcin = synthetic (two enantiomers)): > 2000 mg/kg
Mortality at doses up to 2 g/kg (male Swiss-Webster mice; oral): no mortality
Body weight, Day 1 (1.0 g/kg) ([4]; 1.0 g/kg oral, Day 1, hernandulcin = synthetic): 28.2 ± 0.8 g
Body weight, Day 3 (1.0 g/kg) ([4]; 1.0 g/kg oral, Day 3, hernandulcin = synthetic): 26.3 ± 0.8 g
Body weight, Day 7 (1.0 g/kg) ([4]; 1.0 g/kg oral, Day 7, hernandulcin = synthetic): 24.7 ± 0.9 g
Body weight, Day 14 (1.0 g/kg) ([4]; 1.0 g/kg oral, Day 14, hernandulcin = synthetic): 28.0 ± 0.8 g
Body weight, pre-drug (1.0 g/kg group) ([4]; 1.0 g/kg oral, pre-drug, hernandulcin = synthetic): 27.7 ± 0.8 g
Body weight, Day 1 (2.0 g/kg) ([4]; 2.0 g/kg oral, Day 1, hernandulcin = synthetic): 28.6 ± 0.8 g
Body weight, Day 3 (2.0 g/kg) ([4]; 2.0 g/kg oral, Day 3, hernandulcin = synthetic): 26.8 ± 0.9 g
Body weight, Day 7 (2.0 g/kg) ([4]; 2.0 g/kg oral, Day 7, hernandulcin = synthetic): 25.0 ± 0.9 g
Body weight, Day 14 (2.0 g/kg) ([4]; 2.0 g/kg oral, Day 14, hernandulcin = synthetic): 24.5 ± 0.8 g
Body weight, pre-drug (2.0 g/kg group) ([4]; 2.0 g/kg oral, pre-drug, hernandulcin = synthetic): 28.8 ± 0.8 g
Day 14 total body weight vs control values [4]: Significant difference from controls
Day 14 total body weight vs control values ([4]; listed as 6-methyl-5-hepten-2-one): significantly different from control values

OC[C@H]1O[C@@](CO)(O[C@H]2O[C@H](CO)[C@@H](O)[C@H](O)[C@H]2O)[C@@H](O)[C@@H]1O [Sucrose, reference compound]
Rate of acid production at 500 micrograms per unit volume (S. mutans [6]; 500 micrograms per unit volume sucrose): 2.8×10^-4 mEq acid/min.
Sweetness intensity, sucrose 0.031 M (human taste panel; 0.031 M, scale 0-100, mean (standard error)): 6.6 (2.44)
Sweetness pleasantness, sucrose 0.031 M (human taste panel; 0.031 M, scale -100 to +100, mean (standard error)): -3.2 (6.44)
Sweetness intensity, sucrose 0.062 M (human taste panel; 0.062 M, scale 0-100, mean (standard error)): 7.8 (1.96)
Sweetness pleasantness, sucrose 0.062 M (human taste panel; 0.062 M, scale -100 to +100, mean (standard error)): -1.6 (7.61)
Sweetness intensity, sucrose 0.125 M (human taste panel; 0.125 M, scale 0-100, mean (standard error)): 21.9 (3.30)
Sweetness pleasantness, sucrose 0.125 M (human taste panel; 0.125 M, scale -100 to +100, mean (standard error)): 19.2 (5.23)
Sweetness intensity, sucrose 0.25 M (human taste panel; 0.25 M, scale 0-100, mean (standard error)): 38.1 (4.43)
Sweetness pleasantness, sucrose 0.25 M (human taste panel; 0.25 M, scale -100 to +100, mean (standard error)): 31.8 (6.34)
Sweetness intensity, sucrose 0.50 M (human taste panel; 0.50 M, scale 0-100, mean (standard error)): 44.4 (4.63)
Sweetness pleasantness, sucrose 0.50 M (human taste panel; 0.50 M, scale -100 to +100, mean (standard error)): 37.8 (5.96)
Sweetness intensity, sucrose 1.0 M (human taste panel; 1.0 M, scale 0-100, mean (standard error)): 75.5 (4.73)
Sweetness pleasantness, sucrose 1.0 M (human taste panel; 1.0 M, scale -100 to +100, mean (standard error)): 2.5 (9.57)
Sweetness intensity, sucrose 2.0 M (human taste panel; 2.0 M, scale 0-100, mean (standard error)): 89.1 (2.93)
Sweetness pleasantness, sucrose 2.0 M (human taste panel; 2.0 M, scale -100 to +100, mean (standard error)): -20.2 (12.69)
Sucrose concentration providing a standard panel response to sucrose intensity (human taste panel; determined graphically): 0.27 M
Sweetness intensity at matched concentration (human taste panel; [10]): 40

Reference: patent US4808409A, “Low cariogenic sweetening agents” (Board of Trustees, University of Illinois, priority 1984, dated 1989)
